In US9650395B2, “Antibacterial compounds and methods for use” (PTC Therapeutics, Inc., priority 2011, dated 2017):
Converted amounts (≈) assume the structure as drawn. Where two headings read alike, the source gives them in different places.

What was measured:
[1] = test system: Gram-positive Staphylococcus aureus (S. aureus) 29213; experiment: Antibacterial activity, microbroth dilution MIC, S. aureus 29213; type: cell-based; conditions: Staphylococcus aureus; S. aureus 29213, microbroth dilution; read-out: MIC, 29213
[2] = test system: control Gram-negative E. coli 25922 strain; experiment: Antibacterial activity, microbroth dilution MIC, E. coli 25922; type: cell-based, Escherichia coli; conditions: Escherichia coli; E. coli 25922, microbroth dilution; read-out: MIC, 25922
[3] = test system: super sensitive Gram-negative Escherichia coli (E. coli) BAS849; experiment: Antibacterial activity, microbroth dilution MIC, E. coli BAS849; type: cell-based; conditions: Escherichia coli, read-out: MIC, BAS849
[4] = test system: quinolone resistant E. coli LZ3111; experiment: Antibacterial activity, MIC, quinolone resistant E. coli LZ3111; type: cell-based, Escherichia coli; conditions: Escherichia coli, read-out: MIC, LZ3111
Excerpt: The antibacterial activity from a microbroth dilution method may be presented as the minimum inhibitory concentration (MIC in […]). The MIC value is the lowest concentration of a drug which prevents macroscopically visible bacterial growth under test conditions.
Mutations in these regions are known to confer a high level resistance to the quinolone class of antibiotics.

[5] = E. coli BAS849, microbroth dilution

Compound	MIC [1] [µg/mL]	MIC [2] [µg/mL]	MIC [3, 5] [µg/mL]	MIC [4] [µg/mL]	MIC [3] [µg/mL]
CCc1cc(C(=O)O)c(=O)[nH]c1-c1ccc(OC)cc1F [Cpd 30, 5-ethyl-6-(2-fluoro-4-methoxyphenyl)-2-oxo-1,2-dihydropyridine-3-carboxylic acid]	12.5 to 150 (≈ 42.9 to 515 µM)	12.5 to 150 (≈ 42.9 to 515 µM)	1 to 3.5 (≈ 3.43 to 12 µM)	12.5 to 150 (≈ 42.9 to 515 µM)	
CCc1c(-c2c(OC)cc(OC)cc2OC)[nH]c(=O)c(C(=O)O)c1O [Cpd 41, 5-ethyl-4-hydroxy-2-oxo-6-(2,4,6-trimethoxyphenyl)-1,2-dihydropyridine-3-carboxylic acid]	12.5 to 150 (≈ 35.8 to 429 µM)	12.5 to 150 (≈ 35.8 to 429 µM)	12.5 to 150 (≈ 35.8 to 429 µM)	12.5 to 150 (≈ 35.8 to 429 µM)	
CCc1c(-c2ccc(OC)c(OC)c2OC)[nH]c(=O)c(C(=O)O)c1O [Cpd 42, 5-ethyl-4-hydroxy-2-oxo-6-(2,3,4-trimethoxyphenyl)-1,2-dihydropyridine-3-carboxylic acid]	1 to 3.5 (≈ 2.86 to 10 µM)	12.5 to 150 (≈ 35.8 to 429 µM)	< 1	12.5 to 150 (≈ 35.8 to 429 µM)	
CCc1c(-c2ccc(N3CCCCC3)cc2F)[nH]c(=O)c(C(=O)O)c1O [Cpd 44, 5-ethyl-6-[2-fluoro-4-(piperidin-1-yl)phenyl]-4-hydroxy-2-oxo-1,2-dihydropyridine-3-carboxylic acid]	1 to 3.5 (≈ 2.77 to 9.71 µM)	12.5 to 150 (≈ 34.7 to 416 µM)	1 to 3.5 (≈ 2.77 to 9.71 µM)	12.5 to 150 (≈ 34.7 to 416 µM)	
CCc1c(-c2ccc(N3CCCC3)cc2OC)[nH]c(=O)c(C(=O)O)c1O [Cpd 45, 5-ethyl-4-hydroxy-6-[2-methoxy-4-(pyrrolidin-1-yl)phenyl]-2-oxo-1,2-dihydropyridine-3-carboxylic acid]	3.5 to 12.5 (≈ 9.77 to 34.9 µM)	12.5 to 150 (≈ 34.9 to 419 µM)	3.5 to 12.5 (≈ 9.77 to 34.9 µM)	12.5 to 150 (≈ 34.9 to 419 µM)	
CCc1c(-c2ccc(N3CCCCC3)cc2OC)[nH]c(=O)c(C(=O)O)c1O [Cpd 49, 5-ethyl-4-hydroxy-6-[2-methoxy-4-(piperidin-1-yl)phenyl]-2-oxo-1,2-dihydropyridine-3-carboxylic acid]	3.5 to 12.5 (≈ 9.4 to 33.6 µM)	12.5 to 150 (≈ 33.6 to 403 µM)	3.5 to 12.5 (≈ 9.4 to 33.6 µM)	12.5 to 150 (≈ 33.6 to 403 µM)	
CCc1cc(C(=O)O)c(=O)[nH]c1-c1ccc(N2CCCC2)cc1OC [Cpd 50, 5-ethyl-6-[2-methoxy-4-(pyrrolidin-1-yl)phenyl]-2-oxo-1,2-dihydropyridine-3-carboxylic acid]	12.5 to 150 (≈ 36.5 to 438 µM)	12.5 to 150 (≈ 36.5 to 438 µM)	12.5 to 150 (≈ 36.5 to 438 µM)	12.5 to 150 (≈ 36.5 to 438 µM)	
CCc1c(-c2ccc(N(C)C)cc2F)[nH]c(=O)c(C(=O)O)c1O [Cpd 55, 6-[4-(dimethylamino)-2-fluorophenyl]-5-ethyl-4-hydroxy-2-oxo-1,2-dihydropyridine-3-carboxylic acid]	3.5 to 12.5 (≈ 10.9 to 39 µM)	12.5 to 150 (≈ 39 to 468 µM)	< 1	12.5 to 150 (≈ 39 to 468 µM)	
CCc1cc(C(=O)O)c(=O)[nH]c1-c1ccc(N2CCCCC2)c(OC)c1 [Cpd 68, 5-ethyl-6-[3-methoxy-4-(piperidin-1-yl)phenyl]-2-oxo-1,2-dihydropyridine-3-carboxylic acid]	12.5 to 150 (≈ 35.1 to 421 µM)	12.5 to 150 (≈ 35.1 to 421 µM)	12.5 to 150 (≈ 35.1 to 421 µM)	12.5 to 150 (≈ 35.1 to 421 µM)	
CCc1c(-c2ccc(N3CCOCC3)cn2)[nH]c(=O)c(C(=O)O)c1O [Cpd 112, 5-ethyl-4-hydroxy-6-(5-morpholinopyridin-2-yl)-2-oxo-1,2-dihydropyridine-3-carboxylic acid]	12.5 to 150 (≈ 36.2 to 434 µM)	12.5 to 150 (≈ 36.2 to 434 µM)	< 1	12.5 to 150 (≈ 36.2 to 434 µM)	
CCc1c(-c2ccc(N3CCNCC3)cn2)[nH]c(=O)c(C(=O)O)c1O [Cpd 113, 5-ethyl-4-hydroxy-2-oxo-6-[5-(piperazin-1-yl)pyridin-2-yl]-1,2-dihydropyridine-3-carboxylic acid]	12.5 to 150 (≈ 36.3 to 436 µM)	3.5 to 12.5 (≈ 10.2 to 36.3 µM)	3.5 to 12.5 (≈ 10.2 to 36.3 µM)	12.5 to 150 (≈ 36.3 to 436 µM)	
CCc1cc(C(=O)O)c(=O)[nH]c1-c1ccc(N2C(=O)CCC2C)cc1 (stereo not shown) [Cpd 116, 5-ethyl-6-[4-(2-methyl-5-oxopyrrolidin-1-yl)phenyl]-2-oxo-1,2-dihydropyridine-3-carboxylic acid]	12.5 to 150 (≈ 36.7 to 441 µM)	12.5 to 150 (≈ 36.7 to 441 µM)	12.5 to 150 (≈ 36.7 to 441 µM)	12.5 to 150 (≈ 36.7 to 441 µM)	
CCc1cc(C(=O)O)c(=O)[nH]c1-c1ccc(N2CC[C@H](O)C2=O)cc1 [Cpd 117, 5-ethyl-6-{4-[(3S)-3-hydroxy-2-oxopyrrolidin-1-yl]phenyl}-2-oxo-1,2-dihydropyridine-3-carboxylic acid]	12.5 to 150 (≈ 36.5 to 438 µM)	12.5 to 150 (≈ 36.5 to 438 µM)	12.5 to 150 (≈ 36.5 to 438 µM)	12.5 to 150 (≈ 36.5 to 438 µM)	
CCc1cc(C(=O)O)c(=O)[nH]c1-c1ccc(N2C[C@@H](N)[C@@H](OC)C2)cc1.Cl [Cpd 135, 6-{4-[(3R,4S)-3-amino-4-methoxypyrrolidin-1-yl]phenyl}-5-ethyl-2-oxo-1,2-dihydropyridine-3-carboxylic acid hydrochloride]	12.5 to 150	12.5 to 150	< 1	12.5 to 150	
CCc1cc(C(=O)O)c(=O)[nH]c1-c1ccc(N2C[C@@H](N)[C@@H](O)C2)cc1.O=C(O)C(F)(F)F [Cpd 136, 6-{4-[(3R,4S)-3-amino-4-hydroxypyrrolidin-1-yl]phenyl}-5-ethyl-2-oxo-1,2-dihydropyridine-3-carboxylic acid trifluoroacetate]	12.5 to 150	12.5 to 150		12.5 to 150	1 to 3.5
CCc1cc(C(=O)O)c(=O)[nH]c1-c1ccc(NCCN(C)C)cc1 [Cpd 159, 6-(4-{[2-(dimethylamino)ethyl]amino}phenyl)-5-ethyl-2-oxo-1,2-dihydropyridine-3-carboxylic acid]	12.5 to 150 (≈ 37.9 to 455 µM)	12.5 to 150 (≈ 37.9 to 455 µM)	1 to 3.5 (≈ 3.04 to 10.6 µM)	12.5 to 150 (≈ 37.9 to 455 µM)	
CCc1cc(C(=O)O)c(=O)[nH]c1-c1ccc(N2CCO[C@H]3CNC[C@H]32)cc1.O=C(O)C(F)(F)F [Cpd 186, 5-ethyl-6-{4-[(4aR,7aS)-hexahydropyrrolo[3,4-b][1,4]oxazin-4(4aH)-yl]phenyl}-2-oxo-1,2-dihydropyridine-3-carboxylic acid trifluoroacetate]	12.5 to 150	12.5 to 150			12.5 to 150
CCc1cc(C(=O)O)c(=O)[nH]c1-c1ccc(N2C[C@H]3CCN(Cc4ccccc4)[C@H]3C2)cc1.O=C(O)C(F)(F)F [Cpd 189, 6-{4-[(3aR,6aR)-1-benzylhexahydropyrrolo[3,4-b]pyrrol-5(1H)-yl]phenyl}-5-ethyl-2-oxo-1,2-dihydropyridine-3-carboxylic acid trifluoroacetate]	12.5 to 150	3.5 to 12.5			< 1
C=CCN(CC=C)c1ccc(-c2[nH]c(=O)c(C(=O)O)cc2CC)cc1 [Cpd 299, 6-{4-[di(prop-2-en-1-yl)amino]phenyl}-5-ethyl-2-oxo-1,2-dihydropyridine-3-carboxylic acid]	12.5 to 150 (≈ 36.9 to 443 µM)	12.5 to 150 (≈ 36.9 to 443 µM)	1 to 3.5 (≈ 2.96 to 10.3 µM)		
CCc1cc(C(=O)O)c(=O)[nH]c1-c1ccc(N2C[C@@H](O)[C@@H](O)C2)cc1 [Cpd 303, 6-{4-[(3R,4S)-3,4-dihydroxypyrrolidin-1-yl]phenyl}-5-ethyl-2-oxo-1,2-dihydropyridine-3-carboxylic acid]	12.5 to 150 (≈ 36.3 to 436 µM)	12.5 to 150 (≈ 36.3 to 436 µM)	< 1		
CCc1cc(C(=O)O)c(=O)[nH]c1-c1ccc(N(C)C)s1 [Cpd 305, 6-[5-(dimethylamino)thiophen-2-yl]-5-ethyl-2-oxo-1,2-dihydropyridine-3-carboxylic acid]	12.5 to 150 (≈ 42.8 to 513 µM)	12.5 to 150 (≈ 42.8 to 513 µM)	< 1		
CCc1c(-c2ccc(N3CCCC3)s2)[nH]c(=O)c(C(=O)O)c1O [Cpd 307, 5-ethyl-4-hydroxy-2-oxo-6-[5-(pyrrolidin-1-yl)thiophen-2-yl]-1,2-dihydropyridine-3-carboxylic acid]	3.5 to 12.5 (≈ 10.5 to 37.4 µM)	12.5 to 150 (≈ 37.4 to 449 µM)	< 1		
CCc1cc(C(=O)O)c(=O)[nH]c1-c1ccc(N2CCCCC2)s1 [Cpd 308, 5-ethyl-2-oxo-6-[5-(piperidin-1-yl)thiophen-2-yl]-1,2-dihydropyridine-3-carboxylic acid]	12.5 to 150 (≈ 37.6 to 451 µM)	12.5 to 150 (≈ 37.6 to 451 µM)	1 to 3.5 (≈ 3.01 to 10.5 µM)		
CCc1c(-c2ccc(N3CCCCC3)s2)[nH]c(=O)c(C(=O)O)c1O [Cpd 309, 5-ethyl-4-hydroxy-2-oxo-6-[5-(piperidin-1-yl)thiophen-2-yl]-1,2-dihydropyridine-3-carboxylic acid]	3.5 to 12.5 (≈ 10 to 35.9 µM)	12.5 to 150 (≈ 35.9 to 431 µM)	< 1		
CCc1cc(C(=O)O)c(=O)[nH]c1-c1ccc(OC(C)(C)C)cc1 [Cpd 311, 6-(4-tert-butoxyphenyl)-5-ethyl-2-oxo-1,2-dihydropyridine-3-carboxylic acid]	12.5 to 150 (≈ 39.6 to 476 µM)	12.5 to 150 (≈ 39.6 to 476 µM)	3.5 to 12.5 (≈ 11.1 to 39.6 µM)		
CCc1cc(C(=O)O)c(=O)[nH]c1-c1ccnn1C [Cpd 344, 5-ethyl-6-(1-methyl-1H-pyrazol-5-yl)-2-oxo-1,2-dihydropyridine-3-carboxylic acid]	12.5 to 150 (≈ 50.6 to 607 µM)	12.5 to 150 (≈ 50.6 to 607 µM)	12.5 to 150 (≈ 50.6 to 607 µM)		
CCc1c(-c2ccnn2C)[nH]c(=O)c(C(=O)O)c1O [Cpd 345, 5-ethyl-4-hydroxy-6-(1-methyl-1H-pyrazol-5-yl)-2-oxo-1,2-dihydropyridine-3-carboxylic acid]	12.5 to 150 (≈ 47.5 to 570 µM)	12.5 to 150 (≈ 47.5 to 570 µM)	12.5 to 150 (≈ 47.5 to 570 µM)		
CCc1cc(C(=O)O)c(=O)[nH]c1-c1cnn(C)c1 [Cpd 346, 5-ethyl-6-(1-methyl-1H-pyrazol-4-yl)-2-oxo-1,2-dihydropyridine-3-carboxylic acid]	12.5 to 150 (≈ 50.6 to 607 µM)	12.5 to 150 (≈ 50.6 to 607 µM)	12.5 to 150 (≈ 50.6 to 607 µM)		
CCc1c(-c2cnn(C)c2)[nH]c(=O)c(C(=O)O)c1O [Cpd 347, 5-ethyl-4-hydroxy-6-(1-methyl-1H-pyrazol-4-yl)-2-oxo-1,2-dihydropyridine-3-carboxylic acid]	12.5 to 150 (≈ 47.5 to 570 µM)	3.5 to 12.5 (≈ 13.3 to 47.5 µM)	1 to 3.5 (≈ 3.8 to 13.3 µM)		
